Here are results for 33 compounds from patent US9969749B2, “Inhibitors of IRAK4 activity” (MERCK SHARP & DOHME CORP., priority 2014, dated 2018).

Each structure is given as a SMILES string.

The assay deals with IRAK4 (Homo sapiens (Human), UniProt Q9NWZ3). Description: IRAK4 Kinase Assay (IMAP fluorescence polarization). Particulars: 0.5 nM GST tagged IRAK4, 100 μM ATP, 100 nM fluorescent peptide substrate RP7030, 30 minutes at 25° C. It is filed as biochemical. How it is done: The kinase activity of IRAK4 is determined by its ability to catalyze the phosphorylation of a fluorescent polypeptide substrate. The extent of phosphorylation is measured using the IMAP technology (Molecular Devices) where the phosphorylated fluorescent substrate binds to the large M(III)-based nanoparticles which reduces the rotational speed of the substrate and thus increases its fluorescent polarization (FP).
Chain of IRAK4 (Q9NWZ3 whole entry): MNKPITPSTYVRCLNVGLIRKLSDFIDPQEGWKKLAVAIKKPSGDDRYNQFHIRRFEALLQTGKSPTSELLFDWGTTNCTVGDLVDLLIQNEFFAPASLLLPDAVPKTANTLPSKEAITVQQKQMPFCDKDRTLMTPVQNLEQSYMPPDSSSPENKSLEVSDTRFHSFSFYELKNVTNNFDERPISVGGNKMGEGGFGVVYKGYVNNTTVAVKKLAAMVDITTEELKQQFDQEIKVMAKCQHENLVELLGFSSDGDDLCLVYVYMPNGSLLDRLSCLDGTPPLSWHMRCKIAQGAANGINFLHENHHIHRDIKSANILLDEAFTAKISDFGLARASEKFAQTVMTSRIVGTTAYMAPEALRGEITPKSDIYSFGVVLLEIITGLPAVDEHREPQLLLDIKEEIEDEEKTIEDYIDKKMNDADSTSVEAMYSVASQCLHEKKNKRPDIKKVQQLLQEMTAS
20 μL reaction mixture contains 10 mM TriHCl, pH 7.2, 0.5 nM GST tagged IRAK4 (SignalChem), 100 nM fluorescent peptide substrate (RP7030, Molecular Devices), 100 μM ATP, 1 mM DDT, 1 mM MgCl2, and 0.01% Tween 20. The reaction is initiated by the addition of ATP. After incubation for 30 minutes at 25° C., 60 μL of Progressive IMAP Reagent (Molecular Devices) is added to stop the reaction. Change in RP7030's FP is determined by a FP reader (Analyst HT, LJL BioSystems).
In general terms: Polarisation of emitted light reports the rotation of a fluorescent probe.
The term IC50 denotes the concentration that gives 50% inhibition. `c1cc(-c2ccc3ncnc(N[C@H]4CC[C@H](N5CCOCC5)CC4)c3c2)c2cc[nH]c2c1` [Example 1-88, 6-(1H-indol-4-yl)-N-[trans-4-(morpholin-4-yl)cyclohexyl]quinazolin-4-amine]: half-maximal inhibition (IC50) was put at 100 nM.
The figure for `CNc1ncc(-c2ccc3ncnc(N[C@H]4CC[C@H](N(C)C)CC4)c3c2)cn1` [Example 1-13, trans-N,N-dimethyl-N′-{6-[2-(methylamino)pyrimidin-5-yl]quinazolin-4-yl}cyclohexane-1,4-diamine] is 28 nM; for `Fc1cncc(-c2ccc3ncnc(N[C@H]4CC[C@H](N5CCOCC5)CC4)c3c2)c1` [Example 1-97, 6-(5-fluoropyridin-3-yl)-N-[trans-4-(morpholin-4-yl)cyclohexyl]quinazolin-4-amine] it is 22 nM; for `Fc1cc2ncnc(N[C@H]3CC[C@H](N4CCOCC4)CC3)c2cc1-c1cncnc1` [Example 1-87, 7-fluoro-N-(trans-4-morpholin-4-ylcyclohexyl)-6-pyrimidin-5-ylquinazolin-4-amine] it is 15 nM.
With `C[C@@H]1CN([C@H]2CC[C@H](Nc3ncnc4ccc(-c5cnc(F)c(N)c5)cc34)CC2)CCO1` [Example 5-24, 6-(5-amino-6-fluoropyridin-3-yl)-N-{trans-4-[(2R)-2-methylmorpholin-4-yl]cyclohexyl}quinazolin-4-amine], the IC50 stood at 1 nM.
With `COCCN[C@H]1CC[C@H](Nc2ncnc3ccc(-c4cncc(O)c4)cc23)CC1` [Example 5-4, 5-[4-({trans-4-[(2-methoxyethyl)amino]cyclohexyl}amino)quinazolin-6-yl]pyridin-3-ol], the half-maximal inhibitory concentration (IC50) is < 0.5 nM.
Consider `c1cncc(-c2ccc3ncnc(N[C@H]4CC[C@H](N5CCOCC5)CC4)c3c2)c1` [Example 1-46, N-[trans-4-(morpholin-4-yl)cyclohexyl]-6-(pyridin-3-yl)quinazolin-4-amine], for which it took 19 nM to reach half-maximal inhibition (IC50).
On to `CN(C)[C@H]1CC[C@H](Nc2ncnc3ccc(-c4cnc(N)nc4)cc23)CC1` [Example 1-29, trans-N′-[6-(2-aminopyrimidin-5-yl)quinazolin-4-yl]-N,N-dimethylcyclohexane-1,4-diamine], for which it took 19 nM to reach half-maximal inhibition (IC50).
The figure for `CNc1cncc(-c2ccc3ncnc(N[C@H]4CC[C@H](N5CCC(CN6CCOCC6)CC5)CC4)c3c2)c1` [Example 5-10, 6-[5-(methylamino)pyridin-3-yl]-N-{trans-4-[4-(morpholin-4-ylmethyl)piperidin-1-yl]cyclohexyl}quinazolin-4-amine] is 8 nM; for `Oc1cncc(-c2cc3c(N[C@H]4CC[C@H](N5CCOCC5)CC4)ncnc3cc2F)c1` [Example 1-84, 5-{7-fluoro-4-[(trans-4-morpholin-4-ylcyclohexyl)amino]quinazolin-6-yl}pyridin-3-ol] it is 1 nM.
To `COc1cnccc1-c1ccc2ncnc(N[C@H]3CC[C@H](N(C)C)CC3)c2c1` [Example 1-38, trans-N′-[6-(3-methoxypyridin-4-yl)quinazolin-4-yl]-N,N-dimethylcyclohexane-1,4-diamine] belongs 71 nM; to `CN(C)[C@H]1CC[C@H](Nc2ncnc3ccc(-c4cncc(F)c4)cc23)CC1` [Example 1-53, trans-N′-[6-(5-fluoropyridin-3-yl)quinazolin-4-yl]-N,N-dimethylcyclohexane-1,4-diamine], 24 nM; to `CN(C)C1CCC(Nc2ncnc3ccc(-c4ccncc4)cc23)CC1` (single isomer, unassigned) [Example 1-6, cis or trans-N,N-dimethyl-N′-[6-(pyridin-4-yl)quinazolin-4-yl]cyclohexane-1,4-diamine], 11 nM.
`CN(C)[C@H]1CC[C@H](Nc2ncnc3ccc(-c4cncc(C(=O)O)c4)cc23)CC1` [Example 1-37, 5-(4-{[trans-4-(dimethylamino)cyclohexyl]amino}quinazolin-6-yl)pyridine-3-carboxylic acid] gave an IC50 of 504 nM.
Compound `CNc1cc(-c2ccc3ncnc(N[C@H]4CC[C@H](N5CCN(C(=O)C6CC6)CC5)CC4)c3c2)cnc1F` [Example 5-28, cyclopropyl {4-[trans-4-({6-[6-fluoro-5-(methylamino)pyridin-3-yl]quinazolin-4-yl}amino)cyclohexyl]piperazin-1-yl}methanone] returned a half-inhibitory concentration (IC50) of 1 nM.
In turn, `CN(C)[C@H]1CC[C@H](Nc2ncnc3ccc(-c4cnc5cc[nH]c5c4)cc23)CC1` [Example 1-59, trans-N,N-dimethyl-N′-[6-(1H-pyrrolo[3,2-b]pyridin-6-yl)quinazolin-4-yl]cyclohexane-1,4-diamine] showed an IC50 of 124 nM.
Consider `CN(C)[C@H]1CC[C@H](Nc2ncnc3ccc(-c4ccnnc4)cc23)CC1` [Example 1-50, trans-N,N-dimethyl-N′-[6-(pyridazin-4-yl)quinazolin-4-yl]cyclohexane-1,4-diamine], for which the midpoint of inhibition, the IC50, lay at 11 nM.
To `Fc1cc(F)cc(-c2ccc3ncnc(N[C@H]4CC[C@H](N5CCOCC5)CC4)c3c2)c1` [Example 1-68, 6-(3,5-difluorophenyl)-N-(trans-4-morpholin-4-ylcyclohexyl)quinazolin-4-amine] belongs 25 nM.
`CN(C)C1CCC(Nc2ncnc3ccc(-c4cccnc4)cc23)CC1` (single isomer, unassigned) [Example 1-4, cis or trans-N,N-dimethyl-N′-[6-(pyridin-3-yl)quinazolin-4-yl]cyclohexane-1,4-diamine] registered an IC50 of 1610 nM.
The figure for `Nc1cc(-c2ccc3ncnc(N[C@H]4CC[C@H](N5CCOCC5)CC4)c3c2)cnc1F` [Example 2-7, 6-(5-amino-6-fluoropyridin-3-yl)-N-(trans-4-morpholin-4-ylcyclohexyl)quinazolin-4-amine] is 1 nM; for `CN(C)[C@H]1CC[C@H](Nc2ncnc3ccc(-c4cc[nH]n4)cc23)CC1` [Example 1-12, trans-N,N-dimethyl-N′-[6-(1H-pyrazol-3-yl)quinazolin-4-yl]cyclohexane-1,4-diamine] it is 17 nM; for `c1cc(-c2ccc3ncnc(N[C@H]4CC[C@H](N5CCOCC5)CC4)c3c2)ccn1` [Example 1-48, N-[trans-4-(morpholin-4-yl)cyclohexyl]-6-(pyridin-4-yl)quinazolin-4-amine] it is 9 nM.
To `Cn1nccc1-c1ccc2ncnc(N[C@H]3CC[C@H](N4CCOCC4)CC3)c2c1` [Example 2-13, 6-(1-methyl-1H-pyrazol-5-yl)-N-(trans-4-morpholin-4-ylcyclohexyl)quinazolin-4-amine] belongs 324 nM; to `CN(C)[C@H]1CC[C@H](Nc2ncnc3ccc(-c4cncc(S(C)(=O)=O)c4)cc23)CC1` [Example 1-41, trans-N,N-dimethyl-N′-{6-[5-(methylsulfonyl)pyridin-3-yl]quinazolin-4-yl}cyclohexane-1,4-diamine], 2350 nM.
The compound `CN(C)C(=O)c1cccc(-c2ccc3ncnc(N[C@H]4CC[C@H](N5CCOCC5)CC4)c3c2)n1` [Example 4-1, N,N-Dimethyl-6-(4-(((trans)-4-morpholinocyclohexyl)amino)quinazolin-6-yl)picolinamide] returned a 50% inhibitory concentration (IC50) of 32 nM.
The compound `FC(F)(F)c1n[nH]cc1-c1ccc2ncnc(N[C@H]3CC[C@H](N4CCOCC4)CC3)c2c1` [Example 2-14, N-(trans-4-morpholin-4-ylcyclohexyl)-6-[3-(trifluoromethyl)-1H-pyrazol-4-yl]quinazolin-4-amine] gave an IC50 of 80 nM.
The figure for `CN(C)C1CCC(Nc2ncnc3ccc(-c4ccncc4)cc23)CC1` (single isomer, unassigned) [Example 1-3, cis or trans-N,N-dimethyl-N′-[6-(pyridin-4-yl)quinazolin-4-yl]cyclohexane-1,4-diamine] is 2290 nM.
In the case of `CNc1cc(-c2ccc3ncnc(N[C@H]4CC[C@H](N5CCC(F)CC5)CC4)c3c2)cnc1F` [Example 5-29, 6-[6-fluoro-5-(methylamino)pyridin-3-yl]-N-[trans-4-(4-fluoropiperidin-1-yl)cyclohexyl]quinazolin-4-amine], the IC50 is 2 nM.
The figure for `CN(C)[C@H]1CC[C@H](Nc2ncnc3ccc(-c4cnccc4C#N)cc23)CC1` [Example 1-22, 3-(4-{[trans-4-(dimethylamino)cyclohexyl]amino}quinazolin-6-yl)pyridine-4-carbonitrile] is 54 nM; for `CN(C)[C@H]1CC[C@H](Nc2ncnc3ccc(-c4cnc(NCCO)nc4)cc23)CC1` [Example 1-43, 2-{[5-(4-{[trans-4-(dimethylamino)cyclohexyl]amino}quinazolin-6-yl)pyrimidin-2-yl]amino}ethanol] it is 25 nM.
`Cc1cncc(-c2ccc3ncnc(N[C@H]4CC[C@H](N5CCOCC5)CC4)c3c2)c1` [Example 1-93, 6-(5-methylpyridin-3-yl)-N-[trans-4-(morpholin-4-yl)cyclohexyl]quinazolin-4-amine] showed a 50% inhibitory concentration (IC50) of 26 nM.
For the compound `CN(C)[C@H]1CC[C@H](Nc2ncnc3ccc(-c4cnc5ccoc5c4)cc23)CC1` [Example 1-61, trans-N′-[6-(furo[3,2-b]pyridin-6-yl)quinazolin-4-yl]-N,N-dimethylcyclohexane-1,4-diamine], the concentration for half-maximal inhibition (IC50) turned out to be 109 nM.
`CN(C)[C@H]1CC[C@H](Nc2ncnc3ccc(-c4cncc(N5CCOCC5)c4)cc23)CC1` [Example 1-23, trans-N,N-dimethyl-N′-{6-[5-(morpholin-4-yl)pyridin-3-yl]quinazolin-4-yl}cyclohexane-1,4-diamine] registered an IC50 of 498 nM.
